Test results published in patent US20090035215A1, “RADIOFLUORINATION” (priority 2006, published 2009).

Assay: TABLE 1
Excerpt: Table printed on a drawing sheet, TABLE 1
The patent's description of the figure: FIGS. 1A, 1B, 1C, 2A, 2B, 2C, 3A, 3B AND 3C SHOW INTENSITY/RETENTION TIME CURVES FOR VARIOUS PRODUCTS.

Structure (SMILES) | % intact after 6 h | t1/2
CC(C)[Si](F)(c1cccc(CCCOC2CCCCO2)c1)C(C)C (racemic) [3d - F] | > 95% | > 100.0 h
CC(C)[Si](F)(c1cccc(CCOC2CCCCO2)c1)C(C)C (racemic) [3e - F] | > 95% | > 100.0 h
CC(C)[Si](F)(c1ccc(CCCO)cc1)C(C)C [4c - F] | – | > 100.0 h
